How the values were obtained:
Type in all cases: in vivo
Details in all cases: 250 g/ha, evaluated after 13 days
[1] = system: Amaranthus palmeri (AMAPA); experiment: Post-emergence herbicide glasshouse test
How it was run: (§1)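 Spray: acetone/water 50:50 + 0.5% Tween 20, 250 g/ha unless stated; 1 d (pre) or 8 d (post) after sowing. Glasshouse 24/16° C, 14 h light, 65% RH, watered twice daily. Read-out at 13 d: % damage binned 1–5 (5=81-100%, 1=0-20%).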

[2] = system: Amaranthus retoflexus (AMARE); experiment: Post-emergence herbicide glasshouse test
How it was run: as §1

[3] = system: Echinochloa crus-galli (ECHCG); experiment: Post-emergence herbicide glasshouse test
How it was run: as §1

[4] = system: Ipomoea hederacea (IPOHE); experiment: Post-emergence herbicide glasshouse test
How it was run: as §1

[5] = system: Amaranthus palmeri (AMAPA); experiment: Pre-emergence herbicide glasshouse test
How it was run: as §1

[6] = system: Amaranthus retoflexus (AMARE); experiment: Pre-emergence herbicide glasshouse test
How it was run: as §1

[7] = system: Echinochloa crus-galli (ECHCG); experiment: Pre-emergence herbicide glasshouse test
How it was run: as §1

[8] = system: Ipomoea hederacea (IPOHE); experiment: Pre-emergence herbicide glasshouse test
How it was run: as §1

| Compound | percentage damage caused to the plant, AMAPA (five-point scale) [1] | percentage damage caused to the plant, AMARE (five-point scale) [2] | percentage damage caused to the plant, ECHCG (five-point scale) [3] | percentage damage caused to the plant, IPOHE (five-point scale) [4] | percentage damage caused to the plant, AMAPA (five-point scale) [5] | percentage damage caused to the plant, AMARE (five-point scale) [6] | percentage damage caused to the plant, ECHCG (five-point scale) [7] | percentage damage caused to the plant, IPOHE (five-point scale) [8] |
| --- | --- | --- | --- | --- | --- | --- | --- | --- |
| CCc1nc(Cn2cc(C(F)(F)F)nc2-c2ccc(Cl)nc2)no1 [Compound 1.090] | 5 (5=81-100%) | 5 (5=81-100%) | 4 (4=61-80%) | 5 (5=81-100%) | 5 (5=81-100%) | 5 (5=81-100%) | 4 (4=61-80%) | 5 (5=81-100%) |
| CCc1cnc(Cn2cc(C(F)(F)F)nc2-c2ccc(Cl)nc2)o1 [Compound 1.092] | 4 (4=61-80%) | 4 (4=61-80%) | 5 (5=81-100%) | 4 (4=61-80%) | 5 (5=81-100%) | 5 (5=81-100%) | 5 (5=81-100%) | 5 (5=81-100%) |
| Cc1cnc(Cn2cc(C(F)(F)F)nc2-c2ccc(Cl)nc2)o1 [Compound 1.094] | 5 (5=81-100%) | 5 (5=81-100%) | 4 (4=61-80%) | 3 (3=41-60%) | 5 (5=81-100%) | 5 (5=81-100%) | 5 (5=81-100%) | 4 (4=61-80%) |
| Cc1coc(Cn2cc(C(F)(F)F)nc2-c2ccc(Cl)nc2)n1 [Compound 1.096] | 5 (5=81-100%) | 5 (5=81-100%) | 4 (4=61-80%) | 3 (3=41-60%) | 5 (5=81-100%) | 5 (5=81-100%) | 5 (5=81-100%) | 5 (5=81-100%) |
| Cc1nc(Cn2cc(C(F)(F)F)nc2-c2ccc(Cl)nc2)no1 [Compound 1.097] | 5 (5=81-100%) | 5 (5=81-100%) | 5 (5=81-100%) | 5 (5=81-100%) | 5 (5=81-100%) | 5 (5=81-100%) | 5 (5=81-100%) | 5 (5=81-100%) |
| CCc1noc(Cn2cc(C(F)(F)F)nc2-c2ccc(Cl)nc2)n1 [Compound 1.098] | 4 (4=61-80%) | 4 (4=61-80%) | 1 (1=0-20%) | 3 (3=41-60%) | 5 (5=81-100%) | 5 (5=81-100%) | 1 (1=0-20%) | 4 (4=61-80%) |
| CCn1cc(Cl)c(Cn2cc(C(F)(F)F)nc2-c2ccc(Cl)nc2)n1 [Compound 1.100] | 1 (1=0-20%) | 1 (1=0-20%) | 1 (1=0-20%) | 1 (1=0-20%) | 1 (1=0-20%) | 1 (1=0-20%) | 1 (1=0-20%) | 1 (1=0-20%) |
| Cc1noc(Cn2cc(C(F)(F)F)nc2-c2ccc(Cl)nc2)n1 [Compound 1.101] | 4 (4=61-80%) | 4 (4=61-80%) | 1 (1=0-20%) | 5 (5=81-100%) | 5 (5=81-100%) | 5 (5=81-100%) | 1 (1=0-20%) | 5 (5=81-100%) |
| Cn1nnc(Cn2cc(C(F)(F)F)nc2-c2ccc(Cl)nc2)n1 [Compound 1.109] | 5 (5=81-100%) | 5 (5=81-100%) | 1 (1=0-20%) | 5 (5=81-100%) | 5 (5=81-100%) | 5 (5=81-100%) | 5 (5=81-100%) | 5 (5=81-100%) |
| CCn1cc(Cn2cc(C(F)(F)F)nc2-c2ccc(Cl)nc2)nn1 [Compound 1.110] | 4 (4=61-80%) | 4 (4=61-80%) | 1 (1=0-20%) | 4 (4=61-80%) | 5 (5=81-100%) | 5 (5=81-100%) | 3 (3=41-60%) | 5 (5=81-100%) |
| FC(F)(F)c1cn(Cc2ccns2)c(-c2ccc(Cl)nc2)n1 [Compound 1.113] | 1 (1=0-20%) | 1 (1=0-20%) | 1 (1=0-20%) | 1 (1=0-20%) | 1 (1=0-20%) | 1 (1=0-20%) | 1 (1=0-20%) | 1 (1=0-20%) |
| FC(F)(F)c1cn(Cc2ccc(Cl)s2)c(-c2ccc(Cl)nc2)n1 [Compound 1.117] | 5 (5=81-100%) | 5 (5=81-100%) | 1 (1=0-20%) | 2 (2=21-40%) | 5 (5=81-100%) | 5 (5=81-100%) | 1 (1=0-20%) | 1 (1=0-20%) |
| FC(F)(F)c1cn(Cc2ncco2)c(-c2ccc(Cl)nc2)n1 [Compound 1.118] | 3 (3=41-60%) | 3 (3=41-60%) | 1 (1=0-20%) | 3 (3=41-60%) | 5 (5=81-100%) | 5 (5=81-100%) | 1 (1=0-20%) | 5 (5=81-100%) |
| FC(F)(F)c1cn(Cc2noc(C3CC3)n2)c(-c2ccc(Cl)nc2)n1 [Compound 1.125] | 4 (4=61-80%) | 5 (5=81-100%) | 4 (4=61-80%) | 5 (5=81-100%) | 5 (5=81-100%) | 5 (5=81-100%) | 5 (5=81-100%) | 5 (5=81-100%) |
| CC(C)c1nc(Cn2cc(C(F)(F)F)nc2-c2ccc(Cl)nc2)no1 [Compound 1.126] | 1 (1=0-20%) | 1 (1=0-20%) | 1 (1=0-20%) | 1 (1=0-20%) | 1 (1=0-20%) | 1 (1=0-20%) | 1 (1=0-20%) | 1 (1=0-20%) |
| CC(C)c1nnc(Cn2cc(C(F)(F)F)nc2-c2ccc(Cl)nc2)o1 [Compound 1.131] | 1 (1=0-20%) | 1 (1=0-20%) | 1 (1=0-20%) | 1 (1=0-20%) | 1 (1=0-20%) | 5 (5=81-100%) | 1 (1=0-20%) | 1 (1=0-20%) |
